Measured values reported in PubChem BioAssay AID831 (PCMD, 2007).
pIC50: −log10 of the molar value. Activity calls are given as the source filed them. The rule behind the calls is not given here.

Each molecule was assayed against Cathepsin S (Homo sapiens) (UniProt P25774) (assay: IC50 of CTSS protease blockers – biochemical, confirmation, dose response (AID 831)). Conditions: purified cathepsin S enzyme activity, fluorescence.
Cathepsin S (Homo sapiens), sequence (P25774 115-331 limits assumed): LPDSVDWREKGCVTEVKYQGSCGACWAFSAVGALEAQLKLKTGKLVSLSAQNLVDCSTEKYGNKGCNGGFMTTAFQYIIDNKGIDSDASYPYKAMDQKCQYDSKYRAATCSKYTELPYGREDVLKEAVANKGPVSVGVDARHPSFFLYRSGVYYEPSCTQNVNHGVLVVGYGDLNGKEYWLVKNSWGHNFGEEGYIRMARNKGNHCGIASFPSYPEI

| SMILES | pIC50 | IC50 |
| --- | --- | --- |
| CCN1CC=C2C(C#N)=C(N)C(C#N)(C#N)C(CCc3ccccc3)C2C1 (centres undefined) | 5.18 | – |
| CC(=O)c1c(O)n(C)c(=S)n(-c2ccccc2)c1=O | – | > 50 µM (inactive) |
| N#CC1=C(N)Oc2c(sc3ccccc23)C1c1ccco1 (centres undefined) | – | > 50 µM (inactive) |
| CC1=C(C(=O)Nc2ccc(F)cc2)C(c2cccc(C)c2)n2nc(CCCO)nc2N1 (centres undefined) | – | > 50 µM (inactive) |
